Laboratory results from patent publication US20140093884A1, “Process for Identifying Novel Anti-Inflammatory Molecules with Reduced Direct Transrepression of Genes Induced by Glucocorticoids” (UNIVERSITE DE STRASBOURG, priority 2011, published 2014).

Key:
Format in all cases: in vivo, mouse
Parameters in all cases: key: ♦: not repressed
[1] = system: IR0, IR1 and IR2 nGRE containing genes; assay: Q-RT-PCR of IR nGRE-containing genes in epidermis of 18 hr-Dex-treated WT mice
Description: (§1) Real time PCR. Total RNA was reverse transcribed using hexamers, followed by Q-PCR, as reported (Li et al., 2005).
(§2) A comparison of mouse and human orthologues indicated conservations of such IR elements (51 IR0, 379 IR1 and 566 IR2). Within these orthologue gene families, 35 IR0, 50 IR1 and 50 IR2 nGRE-containing mouse genes (Table 4) were randomly chosen to investigate whether (i) they were expressed in epidermis, intestinal epithelium and liver, (ii) their expression was inhibited by the GC agonist Dexamethasone (Dex), (iii) this inhibition could be relieved by RU486 co-administration, and also if it could be correlated with GR and corepressor binding to their putative IR nGREs.

[2] = system: IR0, IR1 and IR2 nGRE containing genes; assay: Q-RT-PCR of IR nGRE-containing genes in intestinal epithelium of 18 hr-Dex-treated WT mice
Description: as §1, §2

[3] = system: IR0, IR1 and IR2 nGRE containing genes; assay: Q-RT-PCR of IR nGRE-containing genes in liver of 18 hr-Dex-treated WT mice
Description: as §1, §2

C[C@@H]1C[C@H]2[C@@H]3CCC4=CC(=O)C=C[C@]4(C)[C@@]3(F)[C@@H](O)C[C@]2(C)[C@@]1(O)C(=O)CO [Dex, dexamethasone]
♦: AIP transcript level, not repressed ([1]; IR0 nGRE gene) | DDI1 transcript level, not repressed ([1]; IR0 nGRE gene) | DLAT transcript level, not repressed ([1]; IR0 nGRE gene) | FBXL18 transcript level, not repressed ([1]; IR0 nGRE gene) | FSD2 transcript level, not repressed ([1]; IR0 nGRE gene) | GPIHBP1 transcript level, not repressed ([1]; IR0 nGRE gene) | HCST transcript level, not repressed ([1]; IR0 nGRE gene) | KLF5 transcript level, not repressed ([1]; IR0 nGRE gene) | LAG3 transcript level, not repressed ([1]; IR0 nGRE gene) | MTG1 transcript level, not repressed ([1]; IR0 nGRE gene) | NEU1 transcript level, not repressed ([1]; IR0 nGRE gene) | PTMS transcript level, not repressed ([1]; IR0 nGRE gene) | SLC25A5 transcript level, not repressed ([1]; IR0 nGRE gene) | TCF25 transcript level, not repressed ([1]; IR0 nGRE gene) | TRPM7 transcript level, not repressed ([1]; IR0 nGRE gene) | ZBED4 transcript level, not repressed ([1]; IR0 nGRE gene) | ZFP113 transcript level, not repressed ([1]; IR0 nGRE gene) | ZFP467 transcript level, not repressed ([1]; IR0 nGRE gene) | ZFP784 transcript level, not repressed ([1]; IR0 nGRE gene) | AGPAT2 transcript level, not repressed ([1]; IR1 nGRE gene) | AKAP6 transcript level, not repressed ([1]; IR1 nGRE gene) | ARHGAP23 transcript level, not repressed ([1]; IR1 nGRE gene) | ATN1 transcript level, not repressed ([1]; IR1 nGRE gene) | B4GALT2 transcript level, not repressed ([1]; IR1 nGRE gene) | BCL2L1 transcript level, not repressed ([1]; IR1 nGRE gene) | BEST2 transcript level, not repressed ([1]; IR1 nGRE gene) | BMP3 transcript level, not repressed ([1]; IR1 nGRE gene) | CACNA2D3 transcript level, not repressed ([1]; IR1 nGRE gene) | CADM4 transcript level, not repressed ([1]; IR1 nGRE gene) | CDK9 transcript level, not repressed ([1]; IR1 nGRE gene) | CTSA transcript level, not repressed ([1]; IR1 nGRE gene) | DYNLT3 transcript level, not repressed ([1]; IR1 nGRE gene) | GNG10 transcript level, not repressed ([1]; IR1 nGRE gene) | GPR108 transcript level, not repressed ([1]; IR1 nGRE gene) | GPR153 transcript level, not repressed ([1]; IR1 nGRE gene) | JUND transcript level, not repressed ([1]; IR1 nGRE gene) | KLC3 transcript level, not repressed ([1]; IR1 nGRE gene) | LRRC transcript level, not repressed ([1]; IR1 nGRE gene) | MT2 transcript level, not repressed ([1]; IR1 nGRE gene) | MTHFR transcript level, not repressed ([1]; IR1 nGRE gene) | MXI1 transcript level, not repressed ([1]; IR1 nGRE gene) | NKRF transcript level, not repressed ([1]; IR1 nGRE gene) | SCP2 transcript level, not repressed ([1]; IR1 nGRE gene) | SREPF1 transcript level, not repressed ([1]; IR1 nGRE gene) | SSTR4 transcript level, not repressed ([1]; IR1 nGRE gene) | STAB1 transcript level, not repressed ([1]; IR1 nGRE gene) | USF1 transcript level, not repressed ([1]; IR1 nGRE gene) | COL4A3BP transcript level, not repressed ([1]; IR2 nGRE gene) | ELMOD3 transcript level, not repressed ([1]; IR2 nGRE gene) | FKBP2 transcript level, not repressed ([1]; IR2 nGRE gene) | FOXQ1 transcript level, not repressed ([1]; IR2 nGRE gene) | GGT1 transcript level, not repressed ([1]; IR2 nGRE gene) | GIT2 transcript level, not repressed ([1]; IR2 nGRE gene) | GLU1 transcript level, not repressed ([1]; IR2 nGRE gene) | GOT1 transcript level, not repressed ([1]; IR2 nGRE gene) | GPR97 transcript level, not repressed ([1]; IR2 nGRE gene) | GRASP transcript level, not repressed ([1]; IR2 nGRE gene) | HSPB2 transcript level, not repressed ([1]; IR2 nGRE gene) | POMGNT1 transcript level, not repressed ([1]; IR2 nGRE gene) | PRKRA transcript level, not repressed ([1]; IR2 nGRE gene) | RORA transcript level, not repressed ([1]; IR2 nGRE gene) | SLC2A8 transcript level, not repressed ([1]; IR2 nGRE gene) | TGM6 transcript level, not repressed ([1]; IR2 nGRE gene) | AIP transcript level, not repressed ([2]; IR0 nGRE gene) | ANO4 transcript level, not repressed ([2]; IR0 nGRE gene) | CITED1 transcript level, not repressed ([2]; IR0 nGRE gene) | DLAT transcript level, not repressed ([2]; IR0 nGRE gene) | FBXL18 transcript level, not repressed ([2]; IR0 nGRE gene) | GPIHBP1 transcript level, not repressed ([2]; IR0 nGRE gene) | KLF5 transcript level, not repressed ([2]; IR0 nGRE gene) | LAG3 transcript level, not repressed ([2]; IR0 nGRE gene) | MAPK4 transcript level, not repressed ([2]; IR0 nGRE gene) | MTG1 transcript level, not repressed ([2]; IR0 nGRE gene) | NDUFA4L2 transcript level, not repressed ([2]; IR0 nGRE gene) | NEU1 transcript level, not repressed ([2]; IR0 nGRE gene) | PPIL5 transcript level, not repressed ([2]; IR0 nGRE gene) | PTMS transcript level, not repressed ([2]; IR0 nGRE gene) | SLC25A5 transcript level, not repressed ([2]; IR0 nGRE gene) | SP9 transcript level, not repressed ([2]; IR0 nGRE gene) | SPARC transcript level, not repressed ([2]; IR0 nGRE gene) | TCF25 transcript level, not repressed ([2]; IR0 nGRE gene) | TRPM7 transcript level, not repressed ([2]; IR0 nGRE gene) | ZBED4 transcript level, not repressed ([2]; IR0 nGRE gene) | ZFP113 transcript level, not repressed ([2]; IR0 nGRE gene) | ZFP467 transcript level, not repressed ([2]; IR0 nGRE gene) | ZFP784 transcript level, not repressed ([2]; IR0 nGRE gene) | ADRA2A transcript level, not repressed ([2]; IR1 nGRE gene) | AGPAT2 transcript level, not repressed ([2]; IR1 nGRE gene) | ATN1 transcript level, not repressed ([2]; IR1 nGRE gene) | BCL2L1 transcript level, not repressed ([2]; IR1 nGRE gene) | BMP3 transcript level, not repressed ([2]; IR1 nGRE gene) | CADM4 transcript level, not repressed ([2]; IR1 nGRE gene) | CDH11 transcript level, not repressed ([2]; IR1 nGRE gene) | CDK9 transcript level, not repressed ([2]; IR1 nGRE gene) | CTSA transcript level, not repressed ([2]; IR1 nGRE gene) | DYNLT3 transcript level, not repressed ([2]; IR1 nGRE gene) | GPR108 transcript level, not repressed ([2]; IR1 nGRE gene) | GPR153 transcript level, not repressed ([2]; IR1 nGRE gene) | KLC3 transcript level, not repressed ([2]; IR1 nGRE gene) | LRRC transcript level, not repressed ([2]; IR1 nGRE gene) | MTHFR transcript level, not repressed ([2]; IR1 nGRE gene) | MXI1 transcript level, not repressed ([2]; IR1 nGRE gene) | NKRF transcript level, not repressed ([2]; IR1 nGRE gene) | SCP2 transcript level, not repressed ([2]; IR1 nGRE gene) | SOCS3 transcript level, not repressed ([2]; IR1 nGRE gene) | SREPF1 transcript level, not repressed ([2]; IR1 nGRE gene) | SSTR4 transcript level, not repressed ([2]; IR1 nGRE gene) | STAB1 transcript level, not repressed ([2]; IR1 nGRE gene) | COL4A3BP transcript level, not repressed ([2]; IR2 nGRE gene) | DPAGT1 transcript level, not repressed ([2]; IR2 nGRE gene) | ELMOD3 transcript level, not repressed ([2]; IR2 nGRE gene) | ERP27 transcript level, not repressed ([2]; IR2 nGRE gene) | FSTL1 transcript level, not repressed ([2]; IR2 nGRE gene) | GIT2 transcript level, not repressed ([2]; IR2 nGRE gene) | GLU1 transcript level, not repressed ([2]; IR2 nGRE gene) | GOT1 transcript level, not repressed ([2]; IR2 nGRE gene) | GPR68 transcript level, not repressed ([2]; IR2 nGRE gene) | GUK1 transcript level, not repressed ([2]; IR2 nGRE gene) | HSPB2 transcript level, not repressed ([2]; IR2 nGRE gene) | HSPB3 transcript level, not repressed ([2]; IR2 nGRE gene) | ITPKA transcript level, not repressed ([2]; IR2 nGRE gene) | MUC20 transcript level, not repressed ([2]; IR2 nGRE gene) | PRKRA transcript level, not repressed ([2]; IR2 nGRE gene) | SLC2A8 transcript level, not repressed ([2]; IR2 nGRE gene) | SLC25A34 transcript level, not repressed ([2]; IR2 nGRE gene) | SOCS1 transcript level, not repressed ([2]; IR2 nGRE gene) | TGM6 transcript level, not repressed ([2]; IR2 nGRE gene) | TNFRSF25 transcript level, not repressed ([2]; IR2 nGRE gene) | AIP transcript level, not repressed ([3]; IR0 nGRE gene) | CITED1 transcript level, not repressed ([3]; IR0 nGRE gene) | DLAT transcript level, not repressed ([3]; IR0 nGRE gene) | FBXL18 transcript level, not repressed ([3]; IR0 nGRE gene) | GPIHBP1 transcript level, not repressed ([3]; IR0 nGRE gene) | INHBE transcript level, not repressed ([3]; IR0 nGRE gene) | MTG1 transcript level, not repressed ([3]; IR0 nGRE gene) | NMYC transcript level, not repressed ([3]; IR0 nGRE gene) | PTMS transcript level, not repressed ([3]; IR0 nGRE gene) | TCF25 transcript level, not repressed ([3]; IR0 nGRE gene) | ZBED4 transcript level, not repressed ([3]; IR0 nGRE gene) | ZFP113 transcript level, not repressed ([3]; IR0 nGRE gene) | ZFP784 transcript level, not repressed ([3]; IR0 nGRE gene) | ADRA2A transcript level, not repressed ([3]; IR1 nGRE gene) | AGPAT2 transcript level, not repressed ([3]; IR1 nGRE gene) | BMP3 transcript level, not repressed ([3]; IR1 nGRE gene) | CADM4 transcript level, not repressed ([3]; IR1 nGRE gene) | CDH11 transcript level, not repressed ([3]; IR1 nGRE gene) | CDK9 transcript level, not repressed ([3]; IR1 nGRE gene) | CTSA transcript level, not repressed ([3]; IR1 nGRE gene) | DYNLT3 transcript level, not repressed ([3]; IR1 nGRE gene) | GPR108 transcript level, not repressed ([3]; IR1 nGRE gene) | GPR153 transcript level, not repressed ([3]; IR1 nGRE gene) | HSD11B2 transcript level, not repressed ([3]; IR1 nGRE gene) | KLC3 transcript level, not repressed ([3]; IR1 nGRE gene) | LRRC transcript level, not repressed ([3]; IR1 nGRE gene) | MT2 transcript level, not repressed ([3]; IR1 nGRE gene) | MTHFR transcript level, not repressed ([3]; IR1 nGRE gene) | MXI1 transcript level, not repressed ([3]; IR1 nGRE gene) | SCP2 transcript level, not repressed ([3]; IR1 nGRE gene) | SGK3 transcript level, not repressed ([3]; IR1 nGRE gene) | SREPF1 transcript level, not repressed ([3]; IR1 nGRE gene) | SSTR4 transcript level, not repressed ([3]; IR1 nGRE gene) | STAB1 transcript level, not repressed ([3]; IR1 nGRE gene) | CCR10 transcript level, not repressed ([3]; IR2 nGRE gene) | COL4A3BP transcript level, not repressed ([3]; IR2 nGRE gene) | DPAGT1 transcript level, not repressed ([3]; IR2 nGRE gene) | ELMOD3 transcript level, not repressed ([3]; IR2 nGRE gene) | ERP27 transcript level, not repressed ([3]; IR2 nGRE gene) | FOXJ1 transcript level, not repressed ([3]; IR2 nGRE gene) | FOXQ1 transcript level, not repressed ([3]; IR2 nGRE gene) | GGT1 transcript level, not repressed ([3]; IR2 nGRE gene) | GOT1 transcript level, not repressed ([3]; IR2 nGRE gene) | GPR97 transcript level, not repressed ([3]; IR2 nGRE gene) | GRASP transcript level, not repressed ([3]; IR2 nGRE gene) | HSPB2 transcript level, not repressed ([3]; IR2 nGRE gene) | HSPB3 transcript level, not repressed ([3]; IR2 nGRE gene) | MUC20 transcript level, not repressed ([3]; IR2 nGRE gene) | POMGNT1 transcript level, not repressed ([3]; IR2 nGRE gene) | PRKRA transcript level, not repressed ([3]; IR2 nGRE gene) | SOCS1 transcript level, not repressed ([3]; IR2 nGRE gene) | TNFRSF25 transcript level, not repressed ([3]; IR2 nGRE gene)
